Data as given in the supplement of paper PMC10307832.

Assays:
Assay in all cases: relative viability (nuclei count vs DMSO), 5 days (fraction); higher = more cells survive
[1] = compound: COc1cc2nc(N3CCCN(C)CC3)nc(NC3CCN(Cc4ccccc4)CC3)c2cc1OC + Cc1cc(Nc2cc(N3CCN(C)CC3)nc(Sc3ccc(NC(=O)C4CC4)cc3)n2)n[nH]1 [Tozasertib] (partner 0.1 µM)
Outline: (§1)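 Nuclei were stained with Hoechst during a one-step fixation (final 0.05% Triton X-100, 1% formaldehyde, 1 ug/ml Hoechst) carried out 5 days after dosing, then counted on 4× images. The cells, lung cancer lines in 1536-well plates, had been dosed by pin tool the day after seeding with one drug alone or a fixed anchor-drug dose plus five library-drug doses (not always all listed) in √10 steps. Relative viability is the nuclei count in treated wells divided by that in vehicle wells, and each value is the median of duplicate plates.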

[2] = compound: COc1cc2nc(N3CCCN(C)CC3)nc(NC3CCN(Cc4ccccc4)CC3)c2cc1OC + NC(=O)Nc1cc(-c2cccc(F)c2)sc1C(=O)N[C@H]1CCCNC1 [AZD7762] (partner 0.2 µM)
Outline: as §1

[3] = compound: COc1cc2nc(N3CCCN(C)CC3)nc(NC3CCN(Cc4ccccc4)CC3)c2cc1OC + Nc1nc2[nH]cc(CCc3ccc(C(=O)N[C@@H](CCC(=O)O)C(=O)O)cc3)c2c(=O)[nH]1 [Pemetrexed] (partner 0.2 µM)
Outline: as §1

[4] = compound: Cc1cc([C@@H](C)Nc2ccccc2C(=O)O)c2nc(N3CCOCC3)cc(=O)n2c1 [AZD6482] + N=C(N)NC(=N)NCCc1ccccc1 [Phenformin] (partner 250 µM)
Outline: as §1

Question: For SW 900, which relative viability ([1]; first compound 0.2 µM) is on record?
Answer: 0.509

Question: What about the relative viability ([1]; first compound 0.6325 µM) of the same cell line?
Answer: 0.539

Question: What about the relative viability ([1]; first compound 2 µM) of the same cell line?
Answer: 0.585

Question: And the relative viability ([1]; first compound 6.325 µM)?
Answer: 0.548

Question: And the relative viability ([2]; first compound 0.2 µM)?
Answer: 0.62

Question: And the relative viability ([2]; first compound 0.6325 µM)?
Answer: 0.564

Question: What about the relative viability ([2]; first compound 2 µM) of the same cell line?
Answer: 0.611

Question: What about the relative viability ([2]; first compound 6.325 µM) of the same cell line?
Answer: 0.577

Question: What about the relative viability ([3]; first compound 0.2 µM) of the same cell line?
Answer: 0.484

Question: And the relative viability ([3]; first compound 0.6325 µM)?
Answer: 0.504

Question: What about the relative viability ([3]; first compound 2 µM) of the same cell line?
Answer: 0.491

Question: What about the relative viability ([3]; first compound 6.325 µM) of the same cell line?
Answer: 0.505

Question: And the relative viability ([4]; first compound 0.08 µM)?
Answer: 0.48

Question: What about the relative viability ([4]; first compound 0.253 µM) of the same cell line?
Answer: 0.29

Question: What about the relative viability ([4]; first compound 0.8 µM) of the same cell line?
Answer: 0.449

Question: What about the relative viability ([4]; first compound 8 µM) of the same cell line?
Answer: 0.414
